We go through 27 compounds from PubChem BioAssay (NCI).

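Step 1: Grow cells in 96-well plates. Step 2: Expose to compound for 48 hours at 5 concentrations. Step 3: Interpolate endpoints linearly; if unreached, use highest concentration. TGI denotes the concentration required for complete inhibition of growth.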

In one assay the test system is A498 renal. The assay can be described thus: NCI tumour cell line growth inhibition, 48 h.
As for `Cc1ccc2c(c1)nc(N)n[n+]2[O-]`, the TGI is above 100 µM.

With `COc1ccc2c(c1)c1c(n2CCN2CCOCC2)-c2ccccc2CC1`, the TGI is above 100 µM.

`CCOC(=O)c1cc(=C2\CCN(CC(C)CC)C2=S)/c(=C(/O)CC)[nH]1` (stereo unspecified) had a TGI of 29 µM.

The compound `CCCCc1c(O)nc(Nc2nc3ccccc3[nH]2)[nH]c1=O` gave a TGI above 100 µM.

As for `N#CC1=C(N)OC2=C(CSc3ccccc32)C1c1ccc(Br)cc1` (stereo unspecified), the TGI worked out at 27.2 µM.

`CCC(=O)C(c1ccccc1)c1ccccn1` (stereo unspecified) gave a TGI above 100 µM.

`Cc1sc2nc3n(c(=O)c2c1C)N=CN(c1ccccc1)C3` came in with a TGI above 100 µM.

The compound `COC(=O)C1=C(C(=O)OC)C2OC1C1C2C2(C)C(C)=C(C)C1(C)S2=O` (stereo unspecified) yielded a TGI of 68.4 µM.

The compound `CCOC(=O)CCC(NC(=O)c1ccc(OCc2nc3cc(C(F)(F)F)ccc3nc2-c2ccccc2)cc1)C(=O)OCC` (stereo unspecified) gave a TGI above 100 µM.

On to `O=c1c2c3ccccc3[nH]c2c2cccc3c2n1CCC3`, for which the TGI is above 100 µM.

Regarding `c1ccc([P+](CCNCCNCC[P+](c2ccccc2)(c2ccccc2)c2ccccc2)(c2ccccc2)c2ccccc2)cc1`, the TGI was above 100 µM.

For the compound `CCOC(=O)c1c(NC(=O)c2ccccc2)sc2c1CCCC2`, the TGI was above 100 µM.

In the case of `CCOc1ccc(N/C(=C(/C(Cl)=C(/Cl)NCCN)[N+](=O)[O-])n2nnc3ccccc32)cc1`, the TGI was above 100 µM.

Regarding `CC(=O)NC1C(OCc2ccccc2)OC(CO)C(O)C1OCC(=O)N[C@@H](C)C(=O)N[C@H](CCC(=O)NCCNCCNc1c2ccccc2nc2cccc([N+](=O)[O-])c12)C(N)=O` (stereo partly specified), the TGI was found to be 48.1 µM.

For the compound `O=C1CC(C(O)CO)CC(=O)N1` (stereo unspecified), the TGI was above 100 µM.

For `C[C@]12OC[C@H](c3ccccc3)N1C(=O)C1[C@H]2CC12SCCS2` (stereo partly specified), the TGI is above 100 µM.

On to `O=C(Cc1nc2ccc(C(=O)c3ccccc3)cc2[nH]c1=O)C(=O)Nc1ccc(Br)cc1`, for which the TGI was above 100 µM.

On to `Cc1cccc(N2C(=O)C3ON(C(C(N)=O)c4ccccc4)C(c4c5ccccc5c(Cl)c5ccccc45)C3C2=O)c1C` (stereo unspecified), for which the TGI was found to be 32.2 µM.

For the compound `Cc1ccccc1C1OC1C(=O)c1ccccc1N` (stereo unspecified), the TGI was above 100 µM.

For `c1cc(-c2cnc(-c3ccc4c(c3)CCCO4)o2)ccn1`, the TGI stood at 25.8 µM.

Another assay has as its system A549 NSCLC. The assay can be described thus: NCI tumour cell line growth inhibition, 48 h.
With `Cc1ccc2c(c1)nc(N)n[n+]2[O-]`, the TGI is above 100 µM.

As for `COc1ccc2c(c1)c1c(n2CCN2CCOCC2)-c2ccccc2CC1`, the TGI was above 100 µM.

For `Cc1cn(C2C=CC(COP(=O)(OCC3=CC(=O)c4ccccc4C3=O)N(C)CCCCCl)O2)c(=O)[nH]c1=O` (stereo unspecified), the TGI stood at 2.97 µM.

In turn, `CCOC(=O)c1cc(=C2\CCN(CC(C)CC)C2=S)/c(=C(/O)CC)[nH]1` (stereo unspecified) registered a TGI above 100 µM.

For `CCCCc1c(O)nc(Nc2nc3ccccc3[nH]2)[nH]c1=O`, the TGI was above 100 µM.

Turning to `CC1(C)CC2(C)CC1CC2O` (stereo unspecified), the TGI was above 100 µM.

In turn, `N#CC1=C(N)OC2=C(CSc3ccccc32)C1c1ccc(Br)cc1` (stereo unspecified) had a TGI of 27.2 µM.

Take `CCC(=O)C(c1ccccc1)c1ccccn1` (stereo unspecified): the TGI was above 100 µM.

`Cc1sc2nc3n(c(=O)c2c1C)N=CN(c1ccccc1)C3` displayed a TGI above 100 µM.

Turning to `COC(=O)C1=C(C(=O)OC)C2OC1C1C2C2(C)C(C)=C(C)C1(C)S2=O` (stereo unspecified), the TGI is above 55.8 µM.

On to `CCOC(=O)CCC(NC(=O)c1ccc(OCc2nc3cc(C(F)(F)F)ccc3nc2-c2ccccc2)cc1)C(=O)OCC` (stereo unspecified), for which the TGI was above 100 µM.

`O=c1c2c3ccccc3[nH]c2c2cccc3c2n1CCC3`: the TGI is above 100 µM.

Compound `c1ccc([P+](CCNCCNCC[P+](c2ccccc2)(c2ccccc2)c2ccccc2)(c2ccccc2)c2ccccc2)cc1` returned a TGI above 100 µM.

`c1ccc(C[P+]2(c3ccccc3)c3ccccc3-c3ccccc32)cc1` returned a TGI above 100 µM.

Take `C=CCN(CC=C)Cn1c(=S)sc2ccccc21`: the TGI was above 100 µM.

`O=c1[nH]c2nc3ccccc3c(=O)n2/c1=C/c1ccc(O)cc1` came in with a TGI above 100 µM.

Compound `O=c1c2ccccc2[nH]c(=S)n1-c1ccc(N=Nc2cccc3c(O)cccc23)cc1` displayed a TGI above 100 µM.

For the compound `CCOc1ccc(N/C(=C(/C(Cl)=C(/Cl)NCCN)[N+](=O)[O-])n2nnc3ccccc32)cc1`, the TGI is above 100 µM.

Regarding `CC(=O)NC1C(OCc2ccccc2)OC(CO)C(O)C1OCC(=O)N[C@@H](C)C(=O)N[C@H](CCC(=O)NCCNCCNc1c2ccccc2nc2cccc([N+](=O)[O-])c12)C(N)=O` (stereo partly specified), the TGI was above 100 µM.

`O=C1CC(C(O)CO)CC(=O)N1` (stereo unspecified) yielded a TGI above 100 µM.

In turn, `C[C@]12OC[C@H](c3ccccc3)N1C(=O)C1[C@H]2CC12SCCS2` (stereo partly specified) returned a TGI above 100 µM.

In the case of `O=C(Cc1nc2ccc(C(=O)c3ccccc3)cc2[nH]c1=O)C(=O)Nc1ccc(Br)cc1`, the TGI is above 100 µM.

Regarding `Cc1cccc(N2C(=O)C3ON(C(C(N)=O)c4ccccc4)C(c4c5ccccc5c(Cl)c5ccccc45)C3C2=O)c1C` (stereo unspecified), the TGI was determined as 48.5 µM.

`Cc1ccccc1C1OC1C(=O)c1ccccc1N` (stereo unspecified) yielded a TGI above 100 µM.

`c1cc(-c2cnc(-c3ccc4c(c3)CCCO4)o2)ccn1` had a TGI of 51.5 µM.

`CCN(CC)CCn1c2cc3c(cc2c(=O)c2cccnc21)OCCO3`: the TGI is above 10 µM.

A further assay relates to HCC-2998 colon. Briefly: NCI tumour cell line growth inhibition, 48 h.
The compound `COc1ccc2c(c1)c1c(n2CCN2CCOCC2)-c2ccccc2CC1` had a TGI of 41.2 µM.

As for `Cc1cn(C2C=CC(COP(=O)(OCC3=CC(=O)c4ccccc4C3=O)N(C)CCCCCl)O2)c(=O)[nH]c1=O` (stereo unspecified), the TGI was 4.42 µM.

In the case of `CC1(C)CC2(C)CC1CC2O` (stereo unspecified), the TGI was above 100 µM.

The compound `CCC(=O)C(c1ccccc1)c1ccccn1` (stereo unspecified) gave a TGI above 100 µM.

`Cc1sc2nc3n(c(=O)c2c1C)N=CN(c1ccccc1)C3` displayed a TGI above 100 µM.

In turn, `COC(=O)C1=C(C(=O)OC)C2OC1C1C2C2(C)C(C)=C(C)C1(C)S2=O` (stereo unspecified) returned a TGI of 38.3 µM.

`O=c1c2c3ccccc3[nH]c2c2cccc3c2n1CCC3`: the TGI was above 100 µM.

For `c1ccc([P+](CCNCCNCC[P+](c2ccccc2)(c2ccccc2)c2ccccc2)(c2ccccc2)c2ccccc2)cc1`, the TGI is above 100 µM.

`c1ccc(C[P+]2(c3ccccc3)c3ccccc3-c3ccccc32)cc1` yielded a TGI above 100 µM.

In turn, `C=CCN(CC=C)Cn1c(=S)sc2ccccc21` had a TGI above 100 µM.

For the compound `O=c1[nH]c2nc3ccccc3c(=O)n2/c1=C/c1ccc(O)cc1`, the TGI came out at 69.9 µM.

As for `O=c1c2ccccc2[nH]c(=S)n1-c1ccc(N=Nc2cccc3c(O)cccc23)cc1`, the TGI was above 100 µM.

In turn, `CCOc1ccc(N/C(=C(/C(Cl)=C(/Cl)NCCN)[N+](=O)[O-])n2nnc3ccccc32)cc1` yielded a TGI above 100 µM.

Take `CC(=O)NC1C(OCc2ccccc2)OC(CO)C(O)C1OCC(=O)N[C@@H](C)C(=O)N[C@H](CCC(=O)NCCNCCNc1c2ccccc2nc2cccc([N+](=O)[O-])c12)C(N)=O` (stereo partly specified): the TGI was found to be 22.5 µM.

On to `O=C1CC(C(O)CO)CC(=O)N1` (stereo unspecified), for which the TGI was above 100 µM.

`C[C@]12OC[C@H](c3ccccc3)N1C(=O)C1[C@H]2CC12SCCS2` (stereo partly specified) came in with a TGI above 100 µM.

With `Cc1ccccc1C1OC1C(=O)c1ccccc1N` (stereo unspecified), the TGI is above 100 µM.

Compound `CCN(CC)CCn1c2cc3c(cc2c(=O)c2cccnc21)OCCO3` yielded a TGI above 10 µM.

Another assay relates to HL-60(TB) leukemia. The assay can be described thus: NCI tumour cell line growth inhibition, 48 h.
`Cc1ccc2c(c1)nc(N)n[n+]2[O-]` came in with a TGI above 100 µM.

`Cc1cn(C2C=CC(COP(=O)(OCC3=CC(=O)c4ccccc4C3=O)N(C)CCCCCl)O2)c(=O)[nH]c1=O` (stereo unspecified): the TGI came to 4.41 µM.
